Earlier results, collected in patent US7670617B2, “Sequential drug delivery systems” (CIMA Labs Inc., priority 2001, dated 2010).
Where two headings read alike, the source gives them in different places.

How the values were obtained:
[1] = in animals
[2] = not given; remark: listed apart in the source

| SMILES | BIOAVAILABILITY (%) (in vivo) | also measured |
| --- | --- | --- |
| CC(C)(C)NC(=O)[C@H]1CC[C@H]2[C@@H]3CC[C@H]4NC(=O)C=C[C@]4(C)[C@H]3CC[C@]12C [Finasteride] | 63% | – |
| CC(NC(C)(C)C)C(=O)c1cccc(Cl)c1.Cl (centres unmarked) [Bupropion:HCI] | – | BIOAVAILABILITY (%) [1]: 5%-20% |
| CC(C)NCC(O)COc1cccc2ccccc12.Cl (centres unmarked) [Propranolol:HCI] | 26% | – |
| CN1CCCC1c1cccnc1 (centres unmarked) [Nicotine] | 16.7 (±8.6%) | – |
| CC(C)C[C@H]1C(=O)N2CCC[C@H]2[C@]2(O)O[C@](NC(=O)[C@@H]3C=C4c5cccc6[nH]c(Br)c(c56)C[C@H]4N(C)C3)(C(C)C)C(=O)N12 [Bromocriptine] | 28% | pKa [2]: 4.9 |
| CCOC(=O)[C@H](CCc1ccccc1)N[C@@H](C)C(=O)N1CCC[C@H]1C(=O)O [Enalapril] | 41-60% | – |
| COc1cc2nc(N3CCN(C(=O)C4COc5ccccc5O4)CC3)nc(N)c2cc1OC (centres unmarked) [Doxazosin] | 65% | – |
| CC(CCc1ccccc1)NCC(O)c1ccc(O)c(C(N)=O)c1 (centres unmarked) [Labetalol] | 18 ± 5% | – |
| CN(C)CCC=C1c2ccccc2COc2ccccc21 [Doxepin] | 27 ± 10% | – |
| Cc1nccn1CC1CCc2c(c3ccccc3n2C)C1=O.Cl (centres unmarked) [Ondansetron:HCI] | 55% | – |
| CCOC(=O)[C@H](CCc1ccccc1)N[C@H]1CCc2ccccc2N(CC(=O)O)C1=O.Cl [Benazepril:HCI] | 37% | – |
| COc1ccccc1OCCNCC(O)COc1cccc2[nH]c3ccccc3c12 (centres unmarked) [Carvedilol] | 25-35% | – |
| CCOC(=O)[C@H](CCc1ccccc1)N[C@@H](C)C(=O)N1Cc2cc(OC)c(OC)cc2C[C@H]1C(=O)O [Moexipril] | 13% | – |
| O=C(O)C(O)C(O)C(=O)O.Oc1ccc2c(c1)[C@@]13CCCC[C@@]1(O)[C@@H](C2)N(CC1CCC1)CC3 [Butorphanol Tartrate] | – | BIOAVAILABILITY (%) (Nasal Spray): 60%-70% |
| CN1CCc2cccc3c2[C@H]1Cc1ccc(O)c(O)c1-3 [Apomorphine] | – | pKa [2]: 7 |
| CC(C)(C)NCC(O)c1cc(O)cc(O)c1 (centres unmarked) [Terbutaline sulphate] | 30-70% | – |
| CC(C)(C)NC(=O)[C@@H]1C[C@@H]2CCCC[C@@H]2CN1C[C@@H](O)[C@H](Cc1ccccc1)NC(=O)[C@H](CC(N)=O)NC(=O)c1ccc2ccccc2n1 [Saquinavir] | – | pKa [2]: 7 |
| Oc1ccc2c3c1O[C@H]1[C@@H](O)CC[C@@]4(O)[C@@H](C2)N(CC2CCC2)CC[C@]314 [Nalbuphine] | 16 (±8) % | – |
| CCOC(=O)[C@H](CCc1ccccc1)N[C@@H](C)C(=O)N1Cc2ccccc2C[C@H]1C(=O)O.Cl [Quinapril•HCI] | 60% | – |
